Data from patent publication US8399378B2, “Use of neonicotinoids in pest control” (Syngenta Crop Protection LLC, priority 1998, dated 2013).

Legend:
Format in all cases: in vivo
Ostrinia nubilalis = test: Maize plot spray test (KnockOut vs conventional maize), action against Ostrinia nubilalis; conditions: 6 days
Method: (§1) A plot (a) planted with maize cv. KnockOut® and an adjacent plot (b) of the same size which is planted with conventional maize, both showing natural infestation with Ostrinia nubilalis, Spodoptera spp. or Heliothis, are sprayed with an aqueous emulsion spray mixture comprising 200, 100, 50, 10, 5, 1 ppm of Ti-435. Immediately afterwards, plot (b) is treated with an emulsion spray mixture comprising 200, 100, 50, 10, 5, 1 ppm of the endotoxin expressed by KnockOut®. Evaluation takes place 6 days later. The percentage reduction in population (% action) is determined by comparing the number of dead pests on the plants of plot (a) with that on the plants of plot (b).
as §1, with “thiamethoxam.” for “Ti-435.”
as §1, with “imidacloprid.” for “Ti-435.”

Nilaparvata lugens = test: Rice plant spray test, action against Nilaparvata lugens; conditions: 20° C, 21 days; for control (percentage reduction in population, % action): infected, then spray 400 ppm; for control level: plot (b) conventional rice plants, 400 ppm compound
Method: (§2) Rice plants on a plot (a) expressing the δ-endotoxin CryIA(b) and conventional rice plants on a plot (b) are infected with Nilaparvata lugens, subsequently sprayed with a spray mixture comprising 400 ppm thiamethoxam. Immediately afterwards, plot (b) is treated with an emulsion spray mixture comprising 400 ppm of the δ-endotoxin CryIA(b). The seedlings of plot (a) and (b) are then incubated at 20° C. The test is evaluated after 21 days.
The percentage reduction in population (% action) is determined by comparing the number of dead pests on the plants of plot (a) with that on the plants of plot (b).
as §2, with “CryIA(c)” for “CryIA(b)”, “CryIA(c).” for “CryIA(b).”

Anthonomus grandis = test: Spray test on young cotton plants, action against Anthonomus grandis adults; conditions: non-transgenic cotton treated with compound and conventional CryIIIA-toxin, each 100, 50, 10, 5, 1 ppm
Nephotettix cincticeps = test: Rice plant pot test, action against Nephotettix cincticeps (systemic); conditions: 6 days; for control (percentage reduction in population, % action): placed in aqueous emulsion with 400 ppm compound; for control level: pot (B) conventional rice plants
Method: (§3) Rice plants expressing the δ-endotoxin CryIa(b) are planted in a in pot (A) and conventional ice plants are planted in a pot (B). Pot (A) is placed in an aqueous emulsion containing 400 ppm thiamethoxam, whereas plot (B) is placed in a pot containing 400 ppm thiamethoxam and 400 ppm of the δ-endotoxin CryI(b). The plants are subsequently infected with Nephotettix cincticeps larvae of the second and third stage. The test is evaluated after 6 days.
The percentage reduction in population (% action) is determined by comparing the number of dead pests on the plants of pot (A) with that on the plants of pot (B).
as §3, with “CryIa(c)” for “CryIa(b)”, “CryI(c).” for “CryI(b).”

Spodoptera spp. = test: Maize plot spray test (KnockOut vs conventional maize), action against Spodoptera spp.; conditions: 6 days
Method: as §1
as §1, with “thiamethoxam.” for “Ti-435.”
as §1, with “imidacloprid.” for “Ti-435.”

[1] = plot (a) maize cv. KnockOut, spray 200, 100, 50, 10, 5, 1 ppm, natural infestation
[2] = plot (b) conventional maize, compound 200, 100, 50, 10, 5, 1 ppm, then same ppm of the endotoxin expressed by KnockOut

CN1COCN(Cc2cnc(Cl)s2)/C1=N\[N+](=O)[O-] [thiamethoxam, 5-(2-Chlorthiazol-5-ylmethyl)-3-methyl-4-nitroimino-perhydro-1,3,5-oxadiazin]
control (percentage reduction in population, % action) (Ostrinia nubilalis; [1]): Improved control | control level (Ostrinia nubilalis; [2]): ≤ 60% | control (percentage reduction in population, % action) (Nilaparvata lugens; plot (a) rice plants expressing δ-endotoxin CryIA(b)): Improved control | control (percentage reduction in population, % action) (Nilaparvata lugens; plot (a) rice plants expressing δ-endotoxin CryIA(c)): Improved control | control level (Nilaparvata lugens; then 400 ppm δ-endotoxin CryIA(b)): ≤ 60% | control level (Nilaparvata lugens; then 400 ppm δ-endotoxin CryIA(c)): ≤ 0% | control of the tested insects (percentage reduction in population or feeding damage, % action) (Anthonomus grandis; comparison arm for CryIIIA cotton): insufficient | control of the tested insects (percentage reduction in population or feeding damage, % action) (Anthonomus grandis; comparison arm for CryIa(c) cotton): insufficient | control (percentage reduction in population, % action) (Nephotettix cincticeps; pot (A) rice plants expressing δ-endotoxin CryIa(b)): Improved control | control (percentage reduction in population, % action) (Nephotettix cincticeps; pot (A) rice plants expressing δ-endotoxin CryIa(c)): Improved control | control level (Nephotettix cincticeps; 400 ppm compound and 400 ppm δ-endotoxin CryI(b)): ≤ 60% | control level (Nephotettix cincticeps; 400 ppm compound and 400 ppm δ-endotoxin CryI(c)): ≤ 60% | control (percentage reduction in population, % action) (Spodoptera spp.; [1]): Improved control | control level (Spodoptera spp.; [2]): ≤ 60%
